Measurements published in PMC9374667 (Communications Biology, 2022).
Several values for one entry are separate records, joined by “and”; a condition that tells them apart may be missing. Equal values may be shown once.

What was measured:
[1] = tested on: db/db mice; test: Fasting serum insulin levels (ELISA); type: in vivo; design: insulin level (Figure 5b): unit not given here; details: db/db mice
Protocol: (§1) Mice were fasted for 4 h for insulin resistance test and intraperitoneally injected with 1 unit/kg of insulin. Blood glucose levels were measured from the tail vein blood at 0, 15, 30, 45, 60, 90, and 120 min after injection. Plasma insulin levels were measured using an ultrasensitive mouse insulin ELISA kit (Nanjing Jiancheng Bioengineering Institute, Nanjing, China).

[2] = tested on: db/db mice; test: Fat depots weight (BAT, iWAT, eWAT; percentage of body weight); type: in vivo; design: key to BAT fat depot weight (Figure 4c): % of body weight (fat depot weight / body weight * 100%); details: db/db mice
Protocol: (§2) The lean wild type control and the db/db control mice were given equal vehicle volume (0.5% CMC-Na solution). All mice were monitored for food intake, body weight, and fasting blood glucose during the 35-day trial. Glucose tolerance test (GTT) and insulin resistance test (ITT) were performed at 4 and 5 weeks of treatment, respectively. Metabolic analysis was performed at 5 weeks of treatment. At the end of the study, blood samples were taken through the retroorbital venous sinus of mice, fat depots (brown fat, inguinal subcutaneous fat, epididymal fat, perirenal fat and mesenteric fat depot) were dissected, weighed, and immediately frozen in liquid nitrogen and stored at −80 °C until required. Weight of fat depots are expressed in percentage (fat depots weight /bodyweight * 100%).

[3] = tested on: db/db mice; test: Body weight of db/db mice during 35-day treatment; type: in vivo; details: db/db mice
Protocol: as §2

[4] = tested on: db/db mice; test: Insulin tolerance test (ITT), AUC and initial slope; type: in vivo; design: blood glucose AUC: unit not given here; details: BBR 150mg/kg; for blood glucose level: in mmol/L (unit assumed)
Protocol: as §1

[5] = pH of the solution after 24 hours of the dissolution test; type: physicochemical
Protocol: Solubilities were determined by adding excess sample to 30 mL different mediums, such as HCl solution, acetate buffer, phosphate buffer, SGF, FaSSIF and FeSSIF. The configuration of various buffer solutions is shown in Supplementary Table 2. After being shaken at 400 rpm at 37 °C for 0.5, 1, 2, and 24 h, 0.3 mL of suspension was sampled and centrifuged at 14,000 rpm for 8 min to isolate mother liquor, and then analyzed by HPLC after dilution. All samples were analyzed in triplicate. […]
into a 1000 mL flask followed by addition of about 800 mL of deionized water. The mixture is stirred until all solids are dissolved.
Add about 100 mL of 0.1 N HCl, check pH value with a pH meter and adjust the pH to 2.0 with HCl (1 N) or NaOH (1 N). Then dilute to the volume with deionized water.
* 1N sodium hydroxide: Weigh 8 g NaOH in a 200 mL plastic volumetric flask, add deionized water to volume and mix well. […]
phosphate and 3.093 g sodium chloride in a 500 mL volumetric flask, add about 0.450 L deionized water, and adjust the pH to 6.5 with 1N sodium hydroxide or 1 N hydrochloric acid. Make up to volume (0.5 […]
Step 2: Place and dissolve 1.120 g FaSSIF/FeSSIF/FaSSGF instant powder with 0.250 L of buffer (from step 1) in a 500 mL volumetric flask, then add buffer (from step 1) to volume, and mix well. […]
g sodium chloride in a 500 mL volumetric flask, add about 0.450 L deionized water, and adjust the pH to 5.0 with 1 N sodium hydroxide or 1 N hydrochloric acid. Make up to volume (500 mL) with
Step 2: Place and dissolve 5.600 g FaSSIF/FeSSIF/FaSSGF instant […]
0.750 L deionized water. Make up to volume (1000 mL) with deionized water and placed overnight.
(1 picture or pasted object on this page, not shown here)

[6] = tested on: db/db mice; test: Serum CHO, TG, FFA, LDL-C, HDL-C and ADPN in the fasted state; type: in vivo; design: FFA (Figure 4g) / LDL-C (Figure 4h) / HDL-C (Figure 4i) / ADPN (Figure 4j): unit not given here; details: db/db mice
Protocol: The serum was collected by centrifugation at 3000 × g at 4 °C for 15 min and stored at −80 °C until analysis. TG, TC, LDL-C, HDL-C, and FFA were routinely tested on a Chemray 240 automatic biochemical analyzer (Chemray 240, Shenzhen, China). Serum levels of mouse adiponectin, interleukin6 (IL-6), tumor necrosis factor-α (TNF-α) were measured using commercial enzyme-linked immunosorbent assay (ELISA) kits (Nanjing Jiancheng Bioengineering Institute, Nanjing, China) and according to the manufacturer’s instructions. The levels of IL-6, TNF-α in 3T3-L1 adipocyte culture supernatant were also detected by ELISA.

[7] = BBR 150mg/kg, individual mice 1-10, in %
[8] = BBR 150mg/kg, serum, individual mice 1-6
[9] = 150 mg/kg, fasted state, individual mice
[10] = vs vehicle, BJ 75 and 150 mg/kg, BBR 150 mg/kg, Ibu 150 mg/kg

Compound: COc1ccc2cc3[n+](cc2c1OC)CCc1cc2c(cc1-3)OCO2 [BBR, Berberine chloride dihydrate]
- insulin level (Figure 5b) ([1]; BBR 150mg/kg, fasting serum, individual mice 1-6): 14.8249 and 14.5179 and 14.1979 and 10.7342 and 12.3345 and 12.7422
- Fasting serum insulin levels ([1]; 150 mg/kg, 35 days of treatment, vs vehicle): did not produce significant effects
- BAT fat depot weight (Figure 4c) ([2]; BBR 150mg/kg, individual mice 1-10): 2.4015 and 0.6109 and 1.4913 and 1.4054 and 1.8804 and 2.4038 and 1.1343 and 1.618 and 1.1772 and 2.0775
- eWAT fat depot weight (Figure 4c) [2, 7]: 2.6561 and 3.1311 and 2.7778 and 2.6199 and 2.8014 and 3.2406 and 2.7924 and 3.779 and 2.6477 and 2.5027
- iWAT fat depot weight (Figure 4c) [2, 7]: 3.5734 and 2.9857 and 2.7524 and 3.658 and 3.8567 and 3.8981 and 3.3728 and 3.0795 and 1.8382 and 2.8305
- Fat depots weight / body weight ([2]; 150 mg/kg for 35 days, individual mice, 150 mg/kg): 19.7808% and 22.3551% and 14.9978% and 19.6619% and 20.7394% and 16.7296% and 16.0902% and 17.3833% and 23.2726% and 23.7021%
- Fat depots weight compared with vehicle ([2]; BJ 75 and 150 mg/kg, BBR 150 mg/kg, Ibu 150 mg/kg): lower fat depots weight than vehicle-treated db/db mice
- Body weight ([3]; 150 mg/kg gavage once per day, day 1, individual mice, 150 mg/kg): 41 grams and 40 grams and 42 grams and 36 grams and 39 grams and 37 grams
- Body weight ([3]; 150 mg/kg gavage once per day, day 4, individual mice, 150 mg/kg): 40 grams and 41 grams and 37 grams and 39 grams
- Body weight ([3]; 150 mg/kg gavage once per day, day 7, individual mice, 150 mg/kg): 42 grams and 43 grams and 37 grams and 38 grams and 39 grams and 41 grams
- Body weight ([3]; 150 mg/kg gavage once per day, day 10, individual mice, 150 mg/kg): 42 grams and 43 grams and 44 grams and 38 grams and 39 grams and 40 grams
- Body weight ([3]; 150 mg/kg gavage once per day, day 13, individual mice, 150 mg/kg): 43 grams and 44 grams and 38 grams and 39 grams and 41 grams
- Body weight ([3]; 150 mg/kg gavage once per day, day 16, individual mice, 150 mg/kg): 45 grams and 43 grams and 44 grams and 38 grams and 39 grams and 42 grams and 41 grams
- Body weight ([3]; 150 mg/kg gavage once per day, day 19, individual mice, 150 mg/kg): 44 grams and 43 grams and 37 grams and 40 grams and 42 grams
- Body weight ([3]; 150 mg/kg gavage once per day, day 22, individual mice, 150 mg/kg): 42 grams and 45 grams and 41 grams and 39 grams and 43 grams and 44 grams
- Body weight ([3]; 150 mg/kg gavage once per day, day 25, individual mice, 150 mg/kg): 42 grams and 46 grams and 43 grams and 38 grams and 39 grams and 44 grams and 40 grams and 45 grams
- Body weight ([3]; 150 mg/kg gavage once per day, day 28, individual mice, 150 mg/kg): 44 grams and 47 grams and 43 grams and 39 grams and 45 grams and 46 grams
- Body weight ([3]; 150 mg/kg gavage once per day, day 31, individual mice, 150 mg/kg): 46 grams and 48 grams and 49 grams and 41 grams and 42 grams and 47 grams and 43 grams and 45 grams
- Body weight ([3]; 150 mg/kg gavage once per day, day 34, individual mice, 150 mg/kg): 48 grams and 46 grams and 50 grams and 51 grams and 43 grams and 47 grams and 45 grams
- Average body weight gain ([3]; 150 mg/kg gavage once per day, day 35, mean ± SD): 7.6 ± 0.8 g
- Body weight gain in 5 weeks ([3]; 150 mg/kg gavage once per day, individual mice, 150 mg/kg): 8 grams and 7 grams and 6 grams and 9 grams
- Body weight compared with vehicle ([3]; 5 weeks, BJ 75 and 150 mg/kg, BBR 150 mg/kg, Ibu 150 mg/kg): lower body weight than the db/db mice treated with the vehicle
- blood glucose level ([4]; individual mice, time column 1 of 7 (time not printed)): 19.2 and 16.4 and 9.2 and 15.3 and 9.5 and 19.6 and 19.0 and 21.8 and 10.2
- blood glucose level ([4]; individual mice, time column 2 of 7 (time not given)): 18.1 and 16.0 and 9.1 and 15.7 and 11.1 and 18.6 and 18.3 and 22.5 and 13.5
- blood glucose level ([4]; individual mice, time column 3 of 7 (time not given)): 14.4 and 12.6 and 7.4 and 12.2 and 7.9 and 18.7 and 13.6 and 19.0 and 15.5 and 10.0
- blood glucose level ([4]; individual mice, time column 4 of 7 (time not given)): 12.3 and 9.3 and 4.0 and 8.5 and 6.8 and 15.1 and 11.8 and 17.7 and 13.7 and 6.9
- blood glucose level ([4]; individual mice, time column 5 of 7 (time not given)): 10.3 and 9.1 and 4.5 and 8.8 and 7.2 and 13.0 and 10.2 and 17.4 and 10.8 and 7.5
- blood glucose level ([4]; individual mice, time column 6 of 7 (time not given)): 11.7 and 9.8 and 3.9 and 8.9 and 7.6 and 15.8 and 11.2 and 20.0 and 12.2 and 8.2
- blood glucose level ([4]; individual mice, time column 7 of 7 (time not printed)): 11.0 and 10.0 and 4.1 and 9.3 and 6.7 and 17.4 and 10.3 and 19.0 and 11.5 and 7.3
- blood glucose AUC ([4]; Figure 5f, individual mice): 948.75 and 1960.5 and 1518 and 2328 and 1638 and 1056.75 and 1563.75 and 1340.25 and 656.25 and 1265.25
- Initial Slope ([4]; db/db mice, individual animals (Figure S10a)): -0.0533 mmol/L/min and -0.03 mmol/L/min and -0.18 mmol/L/min and -0.0933 mmol/L/min and -0.1367 mmol/L/min and -0.0067 mmol/L/min and -0.16 mmol/L/min and -0.1267 mmol/L/min and -0.06 mmol/L/min and -0.1033 mmol/L/min
- pH of the solution after 24 hours ([5]; Acetate buffer, blank vehicle 4.54): 4.57
- pH of the solution after 24 hours ([5]; CMC-Na, blank vehicle 6.51): 6.20
- pH of the solution after 24 hours ([5]; FaSSIF-v1, blank vehicle 6.51): 6.54
- pH of the solution after 24 hours ([5]; FeSSIF-v1, blank vehicle 5.04): 5.03
- pH of the solution after 24 hours ([5]; HCl solution, blank vehicle 1.08): 1.05
- pH of the solution after 24 hours ([5]; Phosphate buffer, blank vehicle 6.84): 6.90
- pH of the solution after 24 hours ([5]; SGF, blank vehicle 2.03): 2.07
- ADPN (Figure 4j) [6, 8]: 531.25 and 533.16 and 569.22 and 520.27 and 517.83 and 573.58
- FFA (Figure 4g) [6, 8]: 783.9 and 765.7 and 789.7 and 738.2 and 717.7 and 741.1
- HDL-C (Figure 4i) [6, 8]: 2.5 and 2.8 and 2.4 and 2.7 and 3
- LDL-C (Figure 4h) [6, 8]: 4.79 and 4.96 and 3.72 and 5.17 and 5.15
- Serum CHO [6, 9]: 4 mmol/L and 4.5 mmol/L and 5.2 mmol/L and 4.6 mmol/L and 4.2 mmol/L
- Serum TG [6, 9]: 1.66 mmol/L and 1.22 mmol/L and 1.5 mmol/L and 1 mmol/L and 0.96 mmol/L and 1.18 mmol/L
- Serum levels of CHO, TG, FFA and LDL-C [6, 10]: decreased
- Serum levels of HDL-C and adiponectin (ADPN) [6, 10]: increased
